These results are taken from US10512641B2, “Chloroquine induction par-4 and treatment of cancer” (University of Kentucky Research Foundation, priority 2015, dated 2019).

The subject of assay [1] is Par-4. The note with it: Burikhanov et al. (2014); cited from earlier work.
Assay [2] relates to Par-4. The assay can be described thus: Par-4 secretion in wild type or p53-null MEFs, Western blot. It is filed as cell-based, mouse. The note with it: CQ 25 μM, Arylquin-1, Nutlin-3a 10 μM, 24 h.
Assay [3] concerns Par-4. The assay can be described thus: ICC analysis of Par-4 localization in Rab8b coated vesicles. In kind it is cell-based. The procedure: An immunocytochemical (ICC) analysis was performed to determine the localization of Par-4 in Rab8b coated vesicles.
The test system of assay [4] is Par-4. Kind of assay: BFA sensitivity of CQ-induced Par-4 in MEFs. The following applies: MEFs pre-treated with BFA 10 μg/ml 30 minutes, then CQ 50 μM 5 h. In kind it is cell-based, mouse.
Text: (§4) The CM and lysates were examined by Western blot analysis with the indicated antibodies.
Another assay deals with A549 lung cancer cells. The note with it: A549 cells, 0, 2, 4 Gy, CQ 10 μM or 20 μM.
The test system of assay [5] is p53.
The next assay deals with H460 or LLC1 cells. The assay can be described thus: Subcutaneous H460 or LLC1 tumor xenografts in nude mice. The note with it: LLC1- or H460-derived flank tumors, CQ 25 mg/kg IP once daily. It is filed as in vivo, mouse.
The next assay deals with LLC1 cells. Kind of assay: Apoptosis of LLC1 cells by CM from CQ-treated MEFs. In kind it is cell-based, mouse. The following applies: CQ 20 μM, 24 h; not with Par-4-/- MEFs.
For assay [6], the system named is Par-4. Kind of assay: Par-4 mRNA by qRT-PCR in MEFs. It is filed as cell-based, mouse. The following applies: CQ 25 μM, 24 h, normalized to GAPDH. An excerpt: The data were normalized relative to a GAPDH control. (see FIG. 8C).
On the technique in general: Real-time PCR tracks product formation cycle by cycle.

The subject of assay [7] is Par-4. The assay can be described thus: Par-4 secretion in conditioned medium of normal human cells, Western blot. In kind it is cell-based. The note with it: normal human PrSC, PrEC, HEL, HBEC; CQ 1-100 μM, 24 h. An excerpt: (§1) The conditioned medium (CM), as well as the whole-cell lysates were subjected to Western blot analysis with the antibodies specific for Par-4, Collagen (Col1A1), albumin, or actin. Col1A1 served as a loading control for protein secretion, as it is generally unchanged in response to the treatments. The samples were also subjected to SDS/PAGE and Coomassie blue staining to determine albumin levels in serum from the CM as another loading control.
On the technique in general: Immunoblotting shows a protein as a band on a membrane.

In assay [8] the test system is Par-4. The assay can be described thus: Par-4 secretion in Rab8b-null and Rab8b reconstituted MEFs. In kind it is cell-based, mouse. The procedure: (§2) Testing was performed to determine whether the expression of Rab genes containing putative p53 binding sites in their promoter region were essential for Par-4 secretion.
The test system of a further assay is UACA. Kind of assay: UACA and NF-κB-regulated gene expression, Western blot. In kind it is cell-based. The following applies: for expression of UACA: 24 h.
Assay [9] has as its system Mel 1617 and Mel 1617BR melanoma cancer cells. The note with it: CQ 1 μM or 5 μM, 0 and 4 Gy.
Another assay relates to Rab8b. Kind of assay: Rab8b and Rab8a expression (protein, real-time PCR). It is filed as cell-based. The procedure: as §2
The guardian of the genome, p53 binds to a consensus motif 5′-PuPuPuC4(A/T)(A/T)G7PyPyPy

Assay [10] deals with cancer cells. Kind of assay: Apoptosis (ICC for active caspase-3) of cells exposed to CQ-treated MEFs or their CM. It is filed as cell-based, human. The procedure: After 24 h, the cells were subjected to immunocytochemistry (ICC) for active caspase-3 and apoptotic cells were scored under a fluorescent microscope.
After 24 h, the cells were scored for apoptosis.
A total of three independent experiments were performed; and approximately 500 cells were scored in each experiment for apoptosis under a fluorescent microscope.

Assay [11] concerns Par-4. The assay can be described thus: Par-4 secretion in conditioned medium of prostate and lung cancer cell lines, Western blot. The following applies: prostate cancer cells LNCaP, C4-2B, DU145, PC-3; CQ 1-100 μM, 24 h. It is filed as cell-based, human.
Text: as §1

Assay [12] relates to Par-4. The assay can be described thus: Par-4 secretion in conditioned medium of MEFs, Western blot. In kind it is cell-based, mouse. The following applies: wild type (p53+/+) MEFs; CQ 1-100 μM, 24 h.
Text: as §1

Assay [13] deals with p53. The note with it: MEFs, CQ 25 μM, 24 h.
For assay [14], the system named is Par-4. The assay can be described thus: Par-4 in serum of renal cell carcinoma patients given HCQ, Western blot. In kind it is in vivo, human. The procedure: Serum samples were collected from renal cell carcinoma patients who were given safe oral doses (400 mg daily for 2-weeks) of HCQ pre-operatively at the University of Pittsburgh, as part of a clinical trial in 2010-2011. Pre-HCQ treatment and post-HCQ treatment serum samples were collected and frozen. In 2013-2014, they were processed by Western blot analysis.
(§3) Aliquots of pre-HCQ or post-HCQ treatment serum samples from the patient were transferred to cancer cell cultures (20% final concentration). After 24 h, the cells were scored for apoptosis by ICC for active caspase-3. Fetal bovine serum (FBS, 10%) was used as an additional control. An asterisk (*) indicates statistical significance (P<0.001) by the Student's t-test. […] Importantly, apoptosis of cancer cells by post-treatment serum from the patient was neutralized by the Par-4 antibody (P) or GRP78 antibody (G), but not by control antibody (C) (FIG. 2E).

The test system of assay [15] is cancer cells. Kind of assay: Ex vivo apoptosis of cancer cells by post-HCQ patient serum. In kind it is cell-based, human. The note with it: PC-3, H460, HOP92, H1299; 20% serum, 24 h; relative to pre-HCQ serum. The procedure:
as §3

Assay [16] has as its system Par-4. The assay can be described thus: Par-4 secretion from MEFs treated with chloroquine, curcumin, ibuprofen or combinations. In kind it is cell-based, mouse. The note with it: 24 h. The procedure:
To determine whether curcumin or ibuprofen enhanced the secretion of Par-4 in cells treated with chloroquine, MEFs were treated with chloroquine (25 μM), curcumin (5 μM and 10 μM) or ibuprofen (500 μM or 750 μM) or combinations of chloroquine and curcumin or ibuprofen for 24 hours at 37° C.
The conditioned medium (CM), as well as the whole-cell lysates, were subjected to Western blot analysis with the antibodies specific for Par-4, Collagen (Col1A1), albumin, or actin. Col1A1 served as a loading control for protein secretion, as it is generally unchanged in response to the treatments. The samples were also subjected to SDS/PAGE and Coomassie blue staining to determine albumin levels in serum from the CM as another loading control.

Molecules are shown by their SMILES.

Text for UACA: as §4

In the case of `CN(C)c1ccc2cc(-c3ccccc3F)c(N)nc2c1` [Arylquin-1], the “secretion of Par-4 from normal cells in mice” value (shortened to “secretion … in mice”) in the assay on Par-4 [1] is recorded as “can increase secretion of Par-4”. The Par-4 secretion entry in the assay with Par-4 [2] was “robust induction of Par-4 secretion”.

On to `C[C@H]1CCC/C=C/[C@@H]2C[C@H](O)C[C@H]2[C@H](O)/C=C/C(=O)O1` [BFA], for which, in the assay on Par-4 [3] (CQ-treated cells plus BFA), the “entry of Par-4 into Rab8b vesicles” value is listed as “prevented Par-4 from entering the Rab8b vesicles”. In addition, in the assay on Par-4 [4], the “effect on CQ-induced Par-4 expression” value is given as “CQ-induced Par-4 expression was inhibited”.

On to `CCN(CC)CCCC(C)Nc1ccnc2cc(Cl)ccc12` (stereo not drawn) [CQ, chloroquine diphosphate], for which the “inhibition of growth and proliferation, radiation plus CQ” value in the assay with A549 lung cancer cells was “greater than additive effect”. Further, the “p53-responsive genes p21 and PIG3” value in the assay on p53 [5] (MEFs and normal mouse lung tissues) is “upregulation of p53-responsive genes p21 and PIG3”. For the same compound, in the assay with p53 [5] (cancer cells), the p53 induction result was “neither induced p53”. Besides, the “co-localization of Par-4 with Rab8b containing vesicles” value in the assay on Par-4 [3] (relative to vehicle) is on record as “increase in the co-localization”. In addition, in the assay on H460 or LLC1 cells, the “growth of subcutaneous tumor xenografts (tumor volume)” value is given as “failed to inhibit the growth”. Also, in the assay on LLC1 cells, the “apoptosis of LLC1 cells by CM from CQ-treated Par-4+/+ MEFs” value was “induced apoptosis of LLC1 cells”. In the assay with Par-4 [6], the “Par-4 RNA level” value is “did not induce Par-4 at the RNA level”. In addition, the “secretion of Par-4 in the CM” value with Par-4 [7] and in the assay with Par-4 [12] was “dose-dependent secretion of Par-4” in each case. Also, in the assay with Par-4 [8] (Rab8b-null MEF cells (not Rab8a-null MEF cells)), the “induction of Par-4 secretion” value was “failed to show induction of Par-4 secretion”. Further, the Par-4 secretion result in the assay with Par-4 [8] (Rab8b-null MEFs transfected with mouse Rab8b expression construct) was “induced Par-4 secretion in Rab8b reconstituted cells”; in the assay on Par-4 [11], “neither induced Par-4 secretion”. Moreover, the “expression of UACA” value with UACA (MEF and HEL, CQ 25 μM) is given as “inhibited the expression of UACA”; with UACA (p53 null MEFs, CQ 25 μM), “not p53 null MEFs”. Besides, the UACA downregulation entry in the assay on UACA (cancer cells) was “failed to downregulate UACA”. Further, in the assay on UACA (p53-dependent, wild type vs p53-/- MEFs, CQ 25 μM), the “expression of UACA and NF-κB-regulated genes cIAP1 and XIAP” value is “inhibited the expression of UACA and NF-κB-regulated genes cIAP1 and XIAP”. Further, in assay [9], the “inhibition of growth and proliferation, CQ plus ionizing radiation” value was “greater than additive effect”. For the same compound, the results for the Rab8b induction result in the assay on Rab8b (cancer cells) and with Rab8b (normal human cells) were “not in cancer cells” and “induced Rab8b in normal human cells”, respectively. The Rab8b protein levels entry with Rab8b (p53 wild type cells) is recorded as “enhanced Rab8b protein levels”. In addition, the “Rab8b mRNA” value with Rab8b (quantitative real-time PCR) is “induced Rab8b mRNA in a p53-dependent manner”. Also, the Rab8a expression result in the assay with Rab8b (wild type MEFs) is recorded as “not Rab8a expression”. Also, the Rab8b expression entry in the assay on Rab8b (wild type MEFs) is “induced Rab8b expression”. The “apoptosis of Par-4-resistant cancer cells with CQ-treated Par-4+/+ MEFs” value in the assay with cancer cells [10] (DU145, A549 cells (internal control), CQ 20 μM) was “resistant to apoptosis”. Besides, in the assay with cancer cells [10] (PC-3, H460, H1299, HOP92, KP7B cells, CQ 20 μM, not with Par-4-/- MEFs), the “apoptosis of cancer cells co-cultured with CQ-treated Par-4+/+ MEFs” value is reported as “sensitive to apoptosis”. Further, the “cancer cell apoptosis by CM of CQ-treated Par-4+/+ MEFs” value with cancer cells [10] (inhibited by Par-4 antibody or GRP78 antibody) is reported as “Cancer cell apoptosis was also induced”. Also, the “apoptosis of normal cells co-cultured with CQ-treated Par-4+/+ MEFs” value with cancer cells [10] (normal HEL cells, CQ 20 μM) is on record as “not normal HEL cells”. Also, the p53-dependent transcription result in the assay on p53 [13] is recorded as “increased p53-dependent transcription”.

Consider `CCN(CCO)CCCC(C)Nc1ccnc2cc(Cl)ccc12` (stereo not drawn) [HCQ, hydroxychloroquine], for which the “induction of Par-4 in patient serum following HCQ treatment” value in the assay on Par-4 [14] (one renal cell carcinoma patient, HCQ 400 mg daily for 2 weeks) is reported as approximately 3 fold. Also, in the assay on Par-4 [14] (renal cell carcinoma patients, HCQ 400 mg daily oral for 2 weeks, post vs pre treatment), the “Par-4 levels in patient serum” value is given as “elevated levels of Par-4 relative to pre-treatment levels”. Moreover, the “ex vivo apoptosis of cancer cells with post-HCQ treatment serum” value in the assay with cancer cells [15] is reported as “underwent apoptosis”.

`COc1ccc(C2=N[C@@H](c3ccc(Cl)cc3)[C@@H](c3ccc(Cl)cc3)N2C(=O)N2CCNC(=O)C2)c(OC(C)C)c1` [Nutlin-3a]: in the assay on Par-4 [1], the “secretion … in mice” value is listed as “can increase secretion of Par-4”. Moreover, the Par-4 secretion entry in the assay on Par-4 [2] is “induced Par-4 secretion in a p53-dependent manner”.

Consider `O=C(Nc1cc(Cl)cc2c1[nH]c1cnccc12)c1cccnc1` [PS-1145], for which, in the assay with Par-4 [1], the “secretion … in mice” value was “can increase secretion of Par-4”. Also, the “apoptosis of A549 cells by CM from CQ-treated MEFs” value with cancer cells [10] (A549 cells pretreated with PS-1145 10 μM, 24 h) was “sensitized to apoptosis”.

Turning to `COc1cc(/C=C/C(=O)CC(=O)/C=C/c2ccc(O)c(OC)c2)ccc1O` [curcumin], the Par-4 secretion entry in the assay on Par-4 [16] (curcumin alone 5 μM and 10 μM) is listed as “enhances Par-4 secretion”.

For the compound `CC(C)Cc1ccc(C(C)C(=O)O)cc1` (stereo not drawn) [ibuprofen], in the assay on Par-4 [16] (ibuprofen 750 μM with chloroquine 25 μM), the “secretion of Par-4 compared with chloroquine alone” value is “significantly improves the secretion of Par-4”. Also, the “production or secretion of Par-4” value in the assay with Par-4 [16] (ibuprofen alone 500 μM or 750 μM) is listed as “does not enhance the production or secretion of Par-4”.
